Assay [1] deals with Aspergillus fumigatus AF293. The assay can be described thus: MIC, YAG medium, Aspergillus fumigatus AF293. Type of assay: cell-based. To be noted: YAG medium; for MIC: Aspergillus fumigatus, AF293, read-out: MIC A Fum. 293. An outline of the steps:
(§1)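 Doubling dilutions (50-0.05 mg/L) were tested against Candida in RPMI with 2% glucose and 0.135M MOPS, pH7.0, at 1-2×10^3 cfu/ml for 24-48 hrs, 35° C; MIC is >80% inhibition at OD485. Aspergillus in YAG medium at 1-2×10^4 cfu/ml for 24 hrs was scored at >70% inhibition; low MICs were retested over 0.5-0.0005 mg/L.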

In a further assay the test system is Aspergillus terreus. The assay can be described thus: MIC, YAG medium, Aspergillus terreus. To be noted: YAG medium; for MIC: Aspergillus terreus. Type of assay: cell-based. The gist of the method: as §1
Assay [2] deals with Aspergillus fumigatus AF210. The assay can be described thus: MIC, YAG medium, Aspergillus fumigatus AF210. In kind it is cell-based. The note with it: YAG medium; for MIC: Aspergillus fumigatus, AF210, read-out: MIC A Fum. 210. The gist of the method:
as §1

For another assay, the system named is Aspergillus flavus. In words: MIC, YAG medium, Aspergillus flavus. The note with it: YAG medium; for MIC: Aspergillus flavus. In kind it is cell-based. An outline of the steps:
as §1

The subject of the next assay is Aspergillus niger. In words: MIC, YAG medium, Aspergillus niger. In kind it is cell-based. The note with it: YAG medium; for MIC: Aspergillus niger. The gist of the method:
as §1

Another assay deals with A Terreus 49. In words: MIC, YAG medium, A Terreus 49. In kind it is cell-based, Aspergillus terreus. The note with it: YAG medium; for MIC: Aspergillus terreus, read-out: MIC A Terreus 49. An outline of the steps:
as §1

Structures are written as SMILES. In brackets after ≈: the same amount, converted by molar mass. Like-named read-outs stand apart in the source and are kept apart here. Some results are limits rather than exact numbers.

In the case of `COc1ccc(NC(=O)C(=O)c2c(-c3ccccc3)cc3ccccn23)cc1` [Example 139, N-(4-Methoxy-phenyl)-2-oxo-2-(2-phenyl-indolizin-3-yl)-acetamide], the minimal inhibitory concentration (MIC) in assay [1] was 0.12 µg/mL (≈ 0.324 µM); with Aspergillus terreus (read-out: MIC A Terreus 4), 0.008 µg/mL (≈ 0.0216 µM); in assay [2], 0.12 µg/mL (≈ 0.324 µM); with Aspergillus flavus (read-out: MIC A Flavus 01), 0.008 µg/mL (≈ 0.0216 µM); in the assay with Aspergillus niger (read-out: MIC A Niger 1), 0.031 µg/mL (≈ 0.0837 µM); in the assay on A Terreus 49 it was 0.002 µg/mL (≈ 0.0054 µM).
For `CN1CCN(c2ccc(NC(=O)C(=O)c3c(-c4ccccc4)cc4ccccn34)cc2)CC1` [Example 262, N-[4-(4-Methyl-piperazin-1-yl)-phenyl]-2-oxo-2-(2-phenyl-indolizin-3-yl)-acetamide], the MIC in assay [1] was found to be 1.6 µg/mL (≈ 3.65 µM); in the assay on Aspergillus terreus (read-out: MIC A Terreus 4) it was 1.6 µg/mL (≈ 3.65 µM); in assay [2], 1.6 µg/mL (≈ 3.65 µM); in the assay on Aspergillus flavus (read-out: MIC A Flavus 01), 1.6 µg/mL (≈ 3.65 µM); with Aspergillus niger (read-out: MIC A Niger 1), 6.25 µg/mL (≈ 14.3 µM); in the assay with A Terreus 49, 1.6 µg/mL (≈ 3.65 µM).
On to `CCOC(=O)C(C)(C)NC(=O)C(=O)c1c(-c2ccccc2)cc2ccccn12` [Example 248, 2-Methyl-2-[2-oxo-2-(2-phenyl-indolizin-3-yl)-acetylamino]-propionic acid ethyl ester], for which the minimum inhibitory concentration (MIC) in assay [1] is 12.5 µg/mL (≈ 33 µM); in the assay on Aspergillus terreus (read-out: MIC A Terreus 4), 6.25 µg/mL (≈ 16.5 µM); in assay [2], 12.5 µg/mL (≈ 33 µM); in the assay with Aspergillus flavus (read-out: MIC A Flavus 01), above 50 µg/mL; in the assay on Aspergillus niger (read-out: MIC A Niger 1) it was 0.4 µg/mL (≈ 1.06 µM); with A Terreus 49, 6.25 µg/mL (≈ 16.5 µM).
Consider `COc1ccc(NC(=O)C(=NOCCCN(C)C)c2c(-c3ccccc3)cc3ccccn23)cc1` (mixture of isomers) [Example 296, 2-[(E/Z)-3-Dimethylamino-propoxyimino]-N-(4-methoxy-phenyl)-2-(2-phenyl-indolizin-3-yl)-acetamide], for which the “MIC A Fum. 293” value in assay [1] is above 50 µg/mL. Moreover, in the assay with Aspergillus terreus, the “MIC A Terreus 4” value turned out to be 6.25 µg/mL. Besides, in assay [2], the “MIC A Fum. 210” value was above 50 µg/mL. Also, the “MIC A Flavus 01” value against Aspergillus flavus was determined as 12.5 µg/mL. In the assay with Aspergillus niger, the “MIC A Niger 1” value stood at 25 µg/mL. For the same compound, the “MIC A Terreus 49” value against A Terreus 49 came out at 6.25 µg/mL.
Turning to `Cc1cccc(NC(=O)C(=O)c2c(-c3ccccc3)cc3ccccn23)c1` [Example 206, 2-Oxo-2-(2-phenyl-indolizin-3-yl)-N-m-tolyl-acetamide], the MIC in assay [1] came out at 0.062 µg/mL (≈ 0.175 µM); in the assay on Aspergillus terreus (read-out: MIC A Terreus 4) it was 0.004 µg/mL (≈ 0.0113 µM); in assay [2], 0.062 µg/mL (≈ 0.175 µM); with Aspergillus flavus (read-out: MIC A Flavus 01), 0.008 µg/mL (≈ 0.0226 µM); in the assay with Aspergillus niger (read-out: MIC A Niger 1) it was 0.015 µg/mL (≈ 0.0423 µM); with A Terreus 49, 0.008 µg/mL (≈ 0.0226 µM).
With `O=C(Nc1ccccc1)C(=O)c1c(-c2ccccc2)cc2ccccn12` [Example 136, 2-Oxo-N-phenyl-2-(2-phenyl-indolizin-3-yl)-acetamide], the MIC in assay [1] amounted to 0.25 µg/mL (≈ 0.734 µM); in the assay with Aspergillus terreus (read-out: MIC A Terreus 4), 0.031 µg/mL (≈ 0.0911 µM); in assay [2], 0.12 µg/mL (≈ 0.353 µM); in the assay on Aspergillus flavus (read-out: MIC A Flavus 01) it was 0.031 µg/mL (≈ 0.0911 µM); in the assay on Aspergillus niger (read-out: MIC A Niger 1), 0.031 µg/mL (≈ 0.0911 µM); in the assay with A Terreus 49, 0.004 µg/mL (≈ 0.0118 µM).
Take `Cc1ccc(NC(=O)C(=O)c2c(-c3ccccc3)cc3ccccn23)c(C)c1C` [Example 259, 2-Oxo-2-(2-phenyl-indolizin-3-yl)-N-(2,3,4-trimethyl-phenyl)-acetamide]: the MIC in assay [1] was found to be 0.06 µg/mL (≈ 0.157 µM); with Aspergillus terreus (read-out: MIC A Terreus 4) it was 0.002 µg/mL (≈ 0.00523 µM); in assay [2] it was 0.06 µg/mL (≈ 0.157 µM); in the assay with Aspergillus flavus (read-out: MIC A Flavus 01), 0.015 µg/mL (≈ 0.0392 µM); in the assay on Aspergillus niger (read-out: MIC A Niger 1) it was 0.03 µg/mL (≈ 0.0784 µM); in the assay with A Terreus 49, 0.004 µg/mL (≈ 0.0105 µM).
In the case of `O=C(Nc1ccc(C(F)(F)F)cc1)C(=O)c1c(-c2ccccc2)cc2ccccn12` [Example 304, 2-Oxo-2-(2-phenyl-indolizin-3-yl)-N-(4-trifluoromethyl-phenyl)-acetamide], the MIC is 0.25 µg/mL (≈ 0.612 µM) in assay [1]; 0.015 µg/mL (≈ 0.0367 µM) in the assay on Aspergillus terreus (read-out: MIC A Terreus); 0.25 µg/mL (≈ 0.612 µM) in assay [2]; 0.031 µg/mL (≈ 0.0759 µM) in the assay on Aspergillus flavus (read-out: MIC A Flavus); 0.015 µg/mL (≈ 0.0367 µM) in the assay on Aspergillus niger (read-out: MIC A Niger); 0.015 µg/mL (≈ 0.0367 µM) in the assay with A Terreus 49.
Consider `O=C(Nc1ccc(N2CCOCC2)cc1)C(=O)c1c(-c2ccccc2)cc2ccccn12` [Example 251, N-(4-Morpholin-4-yl-phenyl)-2-oxo-2-(2-phenyl-indolizin-3-yl)-acetamide], for which the MIC is 0.12 µg/mL (≈ 0.282 µM) in assay [1]; 0.031 µg/mL (≈ 0.0729 µM) with Aspergillus terreus (read-out: MIC A Terreus 4); 0.12 µg/mL (≈ 0.282 µM) in assay [2]; 0.062 µg/mL (≈ 0.146 µM) with Aspergillus flavus (read-out: MIC A Flavus 01); 0.062 µg/mL (≈ 0.146 µM) in the assay with Aspergillus niger (read-out: MIC A Niger 1); 0.015 µg/mL (≈ 0.0353 µM) with A Terreus 49.
Turning to `O=C(Nc1ccc(-c2cnco2)cc1)C(=O)c1c(-c2ccccc2)cc2ccccn12` [Example 291, N-(4-Oxazol-5-yl-phenyl)-2-oxo-2-(2-phenyl-indolizin-3-yl)-acetamide], the MIC amounted to 0.8 µg/mL (≈ 1.96 µM) in assay [1]; 0.015 µg/mL (≈ 0.0368 µM) in the assay with Aspergillus terreus (read-out: MIC A Terreus 4); 3.1 µg/mL (≈ 7.61 µM) in assay [2]; 0.03 µg/mL (≈ 0.0736 µM) in the assay on Aspergillus flavus (read-out: MIC A Flavus 01); 0.05 µg/mL (≈ 0.123 µM) in the assay on Aspergillus niger (read-out: MIC A Niger 1); 0.015 µg/mL (≈ 0.0368 µM) with A Terreus 49.

What is called MIC is the smallest concentration in the dilution series that meets the test's criterion for growth inhibition.
